Reference: US20220281848A1, “PYRAZOLE-SUBSTITUTED PYRROLIDINONES AS HERBICIDES” (FMC Corporation, priority 2019, published 2022)

What was measured:
Format in all cases: in vivo
Conditions in all cases: after 13 d
[1] = system: ivy-leaved morning glory (Ipomoea hederacea, IPOHE); assay: Test A post-emergence, ivy-leaved morning glory
Protocol: (§1) Seeds of corn (Zea mays, ZEAMX), giant foxtail (Setaria faberi, SETFA), barnyardgrass (Echinochloa crus-galli, ECHCG), ivy-leaved morning glory (Ipomoea hederacea, IPOHE)), redroot pigweed (Amaranthus retroflexus, AMARE) and velvetleaf (Abutilon theophrasti, ABUTH) were sown in standard soil in pots. After cultivation for 8 d under controlled conditions in a glasshouse (at 24/16° C., day/night; 14 h light; 65% humidity), the plants were sprayed with an aqueous spray solution derived from the formulation of the technical active ingredient in acetone/water (50:50) solution containing 0.5% Tween 20 (polyoxyethylene sorbitan monolaurate, CAS RN 9005-64-5) to give a final dose of 15.625, 62.5 or 250 g/ha of test compound.
(§2) The test plants were then grown on under controlled conditions in a glasshouse (at 24/16° C., day/night; 14 h light; 65% humidity) and watered twice daily. After 13 d the test was evaluated (100=total damage to plant; 0=no damage to plant).

[2] = system: redroot pigweed (Amaranthus retroflexus, AMARE); assay: Test A post-emergence, redroot pigweed
Protocol: as §1, §2

[3] = system: barnyardgrass (Echinochloa crus-galli, ECHCG); assay: Test A pre-emergence, barnyardgrass
Protocol: as §1, with “IPOHE),” for “IPOHE)),”, “one day” for “8 d”
(§3) The test plants were then grown under controlled conditions in a glasshouse (at 24/16° C., day/night; 14 h light; 65% humidity) and watered twice daily. After 13 d the test was evaluated (100=total damage to plant; 0=no damage to plant).

[4] = system: velvetleaf (Abutilon theophrasti, ABUTH); assay: Test A pre-emergence, velvetleaf
Protocol: as §1, with “IPOHE),” for “IPOHE)),”, “one day” for “8 d”
as §3

[5] = system: giant foxtail (Setaria faberi, SETFA); assay: Test A pre-emergence, giant foxtail
Protocol: as §1, with “IPOHE),” for “IPOHE)),”, “one day” for “8 d”
as §3

[6] = system: giant foxtail (Setaria faberi, SETFA); assay: Test A post-emergence, giant foxtail
Protocol: as §1, §2

corn (Zea mays, ZEAMX) [7] = assay: Test A pre-emergence, corn
Protocol: as §1, with “IPOHE),” for “IPOHE)),”, “one day” for “8 d”
as §3

[8] = system: ivy-leaved morning glory (Ipomoea hederacea, IPOHE); assay: Test A pre-emergence, ivy-leaved morning glory
Protocol: as §1, with “IPOHE),” for “IPOHE)),”, “one day” for “8 d”
as §3

corn (Zea mays, ZEAMX) [9] = assay: Test A post-emergence, corn
Protocol: as §1, §2

[10] = system: velvetleaf (Abutilon theophrasti, ABUTH); assay: Test A post-emergence, velvetleaf
Protocol: as §1, §2

[11] = system: barnyardgrass (Echinochloa crus-galli, ECHCG); assay: Test A post-emergence, barnyardgrass
Protocol: as §1, §2

[12] = system: redroot pigweed (Amaranthus retroflexus, AMARE); assay: Test A pre-emergence, redroot pigweed
Protocol: as §1, with “IPOHE),” for “IPOHE)),”, “one day” for “8 d”
as §3

Compound | damage to plant (100=total damage; 0=no damage) IPOHE ([1]; Post-Emergence at 15.625 g/ha) | damage to plant (100=total damage; 0=no damage) IPOHE ([1]; Post-Emergence at 62.5 g/ha) | damage to plant (100=total damage; 0=no damage) AMARE ([2]; Post-Emergence at 15.625 g/ha) | damage to plant (100=total damage; 0=no damage) AMARE ([2]; Post-Emergence at 62.5 g/ha) | damage to plant (100=total damage; 0=no damage) ECHCG ([3]; Pre-Emergence at 15.625 g/ha) | damage to plant (100=total damage; 0=no damage) ECHCG ([3]; Pre-Emergence at 62.5 g/ha) | damage to plant (100=total damage; 0=no damage) ABUTH ([4]; Pre-Emergence at 15.625 g/ha) | damage to plant (100=total damage; 0=no damage) ABUTH ([4]; Pre-Emergence at 62.5 g/ha) | damage to plant (100=total damage; 0=no damage) SETFA ([5]; Pre-Emergence at 15.625 g/ha) | damage to plant (100=total damage; 0=no damage) SETFA ([5]; Pre-Emergence at 62.5 g/ha) | damage to plant (100=total damage; 0=no damage) SETFA ([6]; Post-Emergence at 15.625 g/ha) | damage to plant (100=total damage; 0=no damage) SETFA ([6]; Post-Emergence at 62.5 g/ha) | damage to plant (100=total damage; 0=no damage) ZEAMX (corn (Zea mays, ZEAMX) [7]; Pre-Emergence at 15.625 g/ha) | damage to plant (100=total damage; 0=no damage) ZEAMX (corn (Zea mays, ZEAMX) [7]; Pre-Emergence at 62.5 g/ha) | damage to plant (100=total damage; 0=no damage) IPOHE ([8]; Pre-Emergence at 15.625 g/ha) | damage to plant (100=total damage; 0=no damage) IPOHE ([8]; Pre-Emergence at 62.5 g/ha) | damage to plant (100=total damage; 0=no damage) ZEAMX (corn (Zea mays, ZEAMX) [9]; Post-Emergence at 15.625 g/ha) | damage to plant (100=total damage; 0=no damage) ZEAMX (corn (Zea mays, ZEAMX) [9]; Post-Emergence at 62.5 g/ha) | damage to plant (100=total damage; 0=no damage) ABUTH ([10]; Post-Emergence at 15.625 g/ha) | damage to plant (100=total damage; 0=no damage) ABUTH ([10]; Post-Emergence at 62.5 g/ha) | also measured
CN1CC(c2cc(C(F)(F)F)n(C)n2)C(C(=O)Nc2cccc(F)c2OC(F)F)C1=O (racemic) [Compound 23] | 0 | 10 | 0 | 0 | 70 | 90 | 0 | 0 | 70 | 90 | 60 | 80 | 10 | 20 | 0 | 10 | 0 | 20 | 0 | 0 | damage to plant (100=total damage; 0=no damage) IPOHE ([1]; Post-Emergence at 250 g/ha): 30; damage to plant (100=total damage; 0=no damage) AMARE ([2]; Post-Emergence at 250 g/ha): 0; damage to plant (100=total damage; 0=no damage) ECHCG ([3]; Pre-Emergence at 250 g/ha): 90; damage to plant (100=total damage; 0=no damage) ABUTH ([4]; Pre-Emergence at 250 g/ha): 0; damage to plant (100=total damage; 0=no damage) SETFA ([5]; Pre-Emergence at 250 g/ha): 90; damage to plant (100=total damage; 0=no damage) SETFA ([6]; Post-Emergence at 250 g/ha): 80; damage to plant (100=total damage; 0=no damage) ZEAMX (corn (Zea mays, ZEAMX) [7]; Pre-Emergence at 250 g/ha): 40; damage to plant (100=total damage; 0=no damage) IPOHE ([8]; Pre-Emergence at 250 g/ha): 20; damage to plant (100=total damage; 0=no damage) ZEAMX (corn (Zea mays, ZEAMX) [9]; Post-Emergence at 250 g/ha): 80; damage to plant (100=total damage; 0=no damage) ABUTH ([10]; Post-Emergence at 250 g/ha): 0; damage to plant (100=total damage; 0=no damage) ECHCG ([11]; Post-Emergence at 15.625 g/ha): 50; damage to plant (100=total damage; 0=no damage) ECHCG ([11]; Post-Emergence at 62.5 g/ha): 80; damage to plant (100=total damage; 0=no damage) ECHCG ([11]; Post-Emergence at 250 g/ha): 80; damage to plant (100=total damage; 0=no damage) AMARE ([12]; Pre-Emergence at 15.625 g/ha): 0; damage to plant (100=total damage; 0=no damage) AMARE ([12]; Pre-Emergence at 62.5 g/ha): 0; damage to plant (100=total damage; 0=no damage) AMARE ([12]; Pre-Emergence at 250 g/ha): 0
Cn1nc([C@H]2CNC(=O)[C@@H]2C(=O)Nc2cccc(F)n2)cc1C(C)(C)C [Compound 1] | 0 | 0 | 0 | 0 | 0 | 0 | 0 | 0 | 0 | 0 | 0 | 0 | 0 | 0 | 0 | 0 | 0 | 0 | 0 | 0 | damage to plant (100=total damage; 0=no damage) ECHCG ([11]; Post-Emergence at 15.625 g/ha): 0; damage to plant (100=total damage; 0=no damage) ECHCG ([11]; Post-Emergence at 62.5 g/ha): 0; damage to plant (100=total damage; 0=no damage) AMARE ([12]; Pre-Emergence at 15.625 g/ha): 0; damage to plant (100=total damage; 0=no damage) AMARE ([12]; Pre-Emergence at 62.5 g/ha): 0
CN1C[C@H](c2nn(C)c3c(Cl)cccc23)[C@@H](C(=O)Nc2cccc(F)c2F)C1=O [Compound 5] | 0 | 0 | 0 | 0 | 0 | 20 | 0 | 0 | 0 | 30 | 10 | 50 | 0 | 0 | 0 | 0 | 0 | 0 | 0 | 0 | damage to plant (100=total damage; 0=no damage) IPOHE ([1]; Post-Emergence at 250 g/ha): 0; damage to plant (100=total damage; 0=no damage) AMARE ([2]; Post-Emergence at 250 g/ha): 0; damage to plant (100=total damage; 0=no damage) ECHCG ([3]; Pre-Emergence at 250 g/ha): 80; damage to plant (100=total damage; 0=no damage) ABUTH ([4]; Pre-Emergence at 250 g/ha): 10; damage to plant (100=total damage; 0=no damage) SETFA ([5]; Pre-Emergence at 250 g/ha): 80; damage to plant (100=total damage; 0=no damage) SETFA ([6]; Post-Emergence at 250 g/ha): 80; damage to plant (100=total damage; 0=no damage) ZEAMX (corn (Zea mays, ZEAMX) [7]; Pre-Emergence at 250 g/ha): 0; damage to plant (100=total damage; 0=no damage) IPOHE ([8]; Pre-Emergence at 250 g/ha): 0; damage to plant (100=total damage; 0=no damage) ZEAMX (corn (Zea mays, ZEAMX) [9]; Post-Emergence at 250 g/ha): 0; damage to plant (100=total damage; 0=no damage) ABUTH ([10]; Post-Emergence at 250 g/ha): 0; damage to plant (100=total damage; 0=no damage) ECHCG ([11]; Post-Emergence at 15.625 g/ha): 0; damage to plant (100=total damage; 0=no damage) ECHCG ([11]; Post-Emergence at 62.5 g/ha): 60; damage to plant (100=total damage; 0=no damage) ECHCG ([11]; Post-Emergence at 250 g/ha): 80; damage to plant (100=total damage; 0=no damage) AMARE ([12]; Pre-Emergence at 15.625 g/ha): 0; damage to plant (100=total damage; 0=no damage) AMARE ([12]; Pre-Emergence at 62.5 g/ha): 0; damage to plant (100=total damage; 0=no damage) AMARE ([12]; Pre-Emergence at 250 g/ha): 30
CCc1ccccc1NC(=O)C1C(=O)N(C)CC1c1cc(C(F)(F)F)n(C)n1 (racemic) [Compound 20] | 0 | 0 | 10 | 10 | 50 | 80 | 0 | 0 | 50 | 80 | 30 | 70 | 0 | 0 | 0 | 0 | 0 | 0 | 0 | 0 | damage to plant (100=total damage; 0=no damage) IPOHE ([1]; Post-Emergence at 250 g/ha): 0; damage to plant (100=total damage; 0=no damage) AMARE ([2]; Post-Emergence at 250 g/ha): 20; damage to plant (100=total damage; 0=no damage) ECHCG ([3]; Pre-Emergence at 250 g/ha): 90; damage to plant (100=total damage; 0=no damage) ABUTH ([4]; Pre-Emergence at 250 g/ha): 0; damage to plant (100=total damage; 0=no damage) SETFA ([5]; Pre-Emergence at 250 g/ha): 90; damage to plant (100=total damage; 0=no damage) SETFA ([6]; Post-Emergence at 250 g/ha): 80; damage to plant (100=total damage; 0=no damage) ZEAMX (corn (Zea mays, ZEAMX) [7]; Pre-Emergence at 250 g/ha): 20; damage to plant (100=total damage; 0=no damage) IPOHE ([8]; Pre-Emergence at 250 g/ha): 0; damage to plant (100=total damage; 0=no damage) ZEAMX (corn (Zea mays, ZEAMX) [9]; Post-Emergence at 250 g/ha): 0; damage to plant (100=total damage; 0=no damage) ABUTH ([10]; Post-Emergence at 250 g/ha): 0; damage to plant (100=total damage; 0=no damage) ECHCG ([11]; Post-Emergence at 15.625 g/ha): 20; damage to plant (100=total damage; 0=no damage) ECHCG ([11]; Post-Emergence at 62.5 g/ha): 60; damage to plant (100=total damage; 0=no damage) ECHCG ([11]; Post-Emergence at 250 g/ha): 80; damage to plant (100=total damage; 0=no damage) AMARE ([12]; Pre-Emergence at 15.625 g/ha): 50; damage to plant (100=total damage; 0=no damage) AMARE ([12]; Pre-Emergence at 62.5 g/ha): 60; damage to plant (100=total damage; 0=no damage) AMARE ([12]; Pre-Emergence at 250 g/ha): 70
